Results as given in US20210008047A1, “TARGETING MINIMAL RESIDUAL DISEASE IN CANCER WITH RXR ANTAGONISTS” (VIB VZW, priority 2018, published 2021).

How the values were obtained:
MEL006 cells = experiment: FACS of GFRA2-positive (NDTC) cells in drug-exposed MEL006 cultures
Protocol: Cells from dissociated MEL006 tumors were grown in 5% CO2 at 37° C. in F10 (Gibco, Life Technologies) supplemented with 10% FBS (Gibco, Life Technologies) and 0.25% Glutamax (Gibco, Life Technologies).
Cells were incubated with GFRA2 antibody (AF429 R&D 3 μg/mL) for 45 minutes at room temperature, followed by anti-goat secondary antibody conjugated with Alexa Fluor® 594 (ThermoFisherScientific) for 30 min at room temperature. Cells were resuspended in FACS sorting buffer (culture medium supplied with 1% EDTA 100 mM).
To assess whether emergence of NDTCs upon MAPK inhibition is cancer cell intrinsic or depends on micro-environmental cues, we exposed 2D cultures of Me1006 to near IC25 concentrations of dabrafenib and trametinib for 10 days.

MM052 cells = experiment: Colony assay and Cell Titer Glo assay in short-term melanoma culture MM052; format: cell-based, human
Protocol: E) and Cell Titer Glo assay performed after 6 days after incubation of the short culture melanoma line MM052 with MEK inhibitor trametinib (TRA; 2 nM), RXRG agonist bexarotene (BEX; 1 uM), FAK inhibitor PF-562271 (1 uM) and RXRG antagonist HX531 (2 uM).
Cells were grown to near confluency on 12well plates and treated with the indicated drug combinations for the indicated time period. Cells were washed once with PBS, stained with crystal violet (1% crystal violet w/v, 35% methanol v/v) for 15 min, washed with PBS and destained in tap water.
2500 cells were plated onto a 96well plate and treated with the indicated drug combinations for the indicated time period. Cell Titer Glo assay was performed according to the manufacturer's instruction (Promega) and luminescence was measured on a VictorX3 (Perkin Elmer).

## CN1c2ccc([N+](=O)[O-])cc2N=C(c2ccc(C(=O)O)cc2)c2cc3c(cc21)C(C)(C)CCC3(C)C [HX531]
MEL006 cells; in the presence of IC50 concentrations of the BRAF and MEK-inhibitors
  Drug-dependent induction of GFRA2-positive cells: completely inhibited
MM052 cells; MM52, HX531 2 uM, trametinib 2 nM per FIG. 7 legend
  Sensitization of cells to trametinib: sensitized

## C=C(c1ccc(C(=O)O)cc1)c1cc2c(cc1C)C(C)(C)CCC2(C)C [bexarotene]
MM052 cells; MM52
  Sensitivity of cells to a combination of trametinib/FAK-inhibitors: increased
MM052 cells; MM52, bexarotene alone
  Long-term growth inhibition: did not induce measurable long-term growth inhibition
MM052 cells; MM52, bexarotene at concentrations as low as 10 nM
  Sensitivity of cells to trametinib: significantly decreased
MM052 cells; bexarotene with trametinib/FAK-inhibitors, after 3 days of treatment (data not shown)
  Cells in which cell death occurred: ~100%

## CN(c1ncccc1CNc1nc(Nc2ccc3c(c2)CC(=O)N3)ncc1C(F)(F)F)S(C)(=O)=O [PF-562271]
MEL006 cells; FAK inhibitor together with DT, dose-dependent
  Drug-dependent emergence of the GFRA2-high cell population: diminished
MEL006 cells; MEL006 cells treated with DT and or FAK inhibitors, then FACS sorted for GFRA2
  Sensitivity of GFRA2high cells to FAK inhibitors: sensitive
